Target: BCL6 BTB domain (Homo sapiens (Human), UniProt P41182)
Experiment: Surface plasmon resonance (SPR) assay
Type: binding
Conditions: BCL6 BTB domain captured on SA chip, single cycle kinetics

| SMILES | Kd |
| --- | --- |
| Cn1cnc2c(c(-c3cc(Cl)c(O)c(C(N)=O)c3)cn2CC(=O)Nc2cc(N3CCOCC34CCC4)ncc2Cl)c1=O [Compound I-245] | 20.4 nM |
| Cn1cnc2c(c(-c3cc(F)c(O)c(C(N)=O)c3)cn2CC(=O)Nc2cc(N3C[C@H]4CC[C@@H](C3)N4CC(F)(F)F)ncc2Cl)c1=O [Compound I-476] | 13.7 nM |
| CN(C)c1cc(NC(=O)Cn2cc(-c3cc(Cl)c(O)c(C(N)=O)c3)c3c(=O)n(C)c(NCc4ccc(F)cc4)nc32)c(Cl)cn1 [Compound I-129] | 44 nM |
| CO[C@@H]1CN(c2cc(NC(=O)Cn3cc(-c4cc(C(N)=O)c(O)c(F)c4F)c4c(=O)n(C)cnc43)c(Cl)c(F)n2)C[C@@H]1F [Compound I-442] | 21.8 nM |
| COC[C@H]1COCCN1c1cc(NC(=O)Cn2cc(-c3cc(Cl)c(O)c(C(N)=O)c3)c3c(=O)[nH]cnc32)c(Cl)cn1 [Compound I-164] | 7.76 nM |
| Cn1cnc2c(c(-c3cc(F)c(O)c(C(N)=O)c3)cn2CC(=O)Nc2cc(N3C4CCC3COC4)ncc2Cl)c1=O [Compound I-436] | 14.1 nM |
| CN1CC2(CCN(c3cc(NC(=O)Cn4cc(-c5cc(C(N)=O)c(O)c(F)c5F)c5c(=O)n(C)cnc54)c(Cl)cn3)C2)C1 [Compound I-483] | 128 nM |
| Cn1c(NCC2CC2)nc2c(c(-c3cc(Cl)c(O)c(C(N)=O)c3)cn2CC(=O)Nc2cc(N3CCOCC3)ncc2Cl)c1=O [Compound I-124] | 86 nM |
| C[C@H]1CN(C2COC2)CCN1c1cc(NC(=O)Cn2cc(-c3cc(Cl)c(O)c(C(N)=O)c3)c3c(=O)n(C)cnc32)c(Cl)c(F)n1 [Compound I-413] | 6.15 nM |
| Cc1nc2cc(Cl)c(NC(=O)Cn3cc(-c4cc(C(N)=O)c(O)c(F)c4F)c4c(=O)n(C)cnc43)cc2o1 [Compound I-226] | 468 nM |
| Cn1cnc2c(c(-c3cc(Cl)c(O)c(C(N)=O)c3)cn2CC(=O)Nc2cc(N3CCN4C(=O)CCC4C3)ncc2Cl)c1=O (stereo not drawn) [Compound I-236] | 16.6 nM |
| CO[C@H]1CN(c2cc(NC(=O)Cn3cc(-c4cc(Cl)c(O)c(C(N)=O)c4)c4c(=O)n(C)c(C(F)(F)F)nc43)c(Cl)c(F)n2)C[C@H]1F [Compound I-389] | 286 nM |
| Cn1cnc2c(c(-c3cc(F)c(O)c(C(N)=O)c3)cn2CC(=O)Nc2cc(N3C4CCC3CN(CC(F)(F)F)C4)ncc2Cl)c1=O [Compound I-467] | 175 nM |
| C[C@H]1COCCN1c1cc(NC(=O)Cn2cc(-c3cc(Cl)c(O)c(C(N)=O)c3)c3c(=O)n(C)c(-c4ccccc4)nc32)c(Cl)cn1 [Compound I-248] | 326 nM |
| Cn1cnc2c(c(-c3cc(C(N)=O)c(O)cc3F)cn2CC(=O)Nc2cc(N3C[C@H]4CCO[C@H]4C3)ncc2Cl)c1=O [Compound I-163] | 50.5 nM |
| CN(C)C1CN(c2cc(NC(=O)Cn3cc(-c4cc(C(N)=O)c(O)c(F)c4F)c4c(=O)n(C)cnc43)c(Cl)cn2)C1 [Compound I-326] | 64.5 nM |
| CO[C@@H]1CN(c2cc(NC(=O)Cn3cc(-c4cc(Cl)c(O)c(C(N)=O)c4)c4c(=O)n(C)c(C(F)(F)F)nc43)c(Cl)c(F)n2)C[C@@H]1F [Compound I-388] | 528 nM |

Test system: BCL6 reporter construct (3xBCL6-TK-Luc) in SuDHL4 cells
Experiment: Cell-based luciferase assay
Conditions: Homo sapiens, SU-DHL-4, 48 h, read-out: Luciferase-Assay EC50, uM), SuDHL4-3xBCL6-TK-Luc cells, two days, high dose 10 uM
Procedure: Cell-Based Luciferase Assay
A BCL6 reporter construct containing three copies of the consensus BCL6 binding site, the TK promoter, and the firefly luciferase gene was stably expressed in SuDHL4 cells after lentivirus infection and selection with Blasticidin. SuDHL4-3×BCL6-TK-Luc cells were seeded into a Viewplate 384-well assay dish at 15,000 cells/well in 25 ul medium (Alpha-MEM high glucose containing 10% FBS, 25 mM HEPES, […] GlutaMAX, 100 ug/ml Normocin, and […] Gentamycin, Invitrogen). A HP D300 digital dispenser was used to dose cells with DMSO or test compounds across a 10-point range of concentrations (high dose of 10 uM), and cultures were grown in a humidified 5% CO2 incubator at 37° C. After two days, plates were removed from the incubator and equilibrated to room temperature. An equal volume of neolite reporter gene assay reagent was added to each well, and samples were processed according to manufacturer's instructions (Perkin Elmer). Luminescent signal was measured using an Envision plate reader equipped with a US-Luminescence detector.

| SMILES | EC50 |
| --- | --- |
| Cn1cnc2c(c(-c3cc(Cl)c(O)c(C(N)=O)c3)cn2CC(=O)Nc2cc(N3CCOCC34CCC4)ncc2Cl)c1=O [Compound I-245] | 0.245 µM |
| Cn1cnc2c(c(-c3cc(F)c(O)c(C(N)=O)c3)cn2CC(=O)Nc2cc(N3C[C@H]4CC[C@@H](C3)N4CC(F)(F)F)ncc2Cl)c1=O [Compound I-476] | 0.159 µM |
| CN(C)c1cc(NC(=O)Cn2cc(-c3cc(Cl)c(O)c(C(N)=O)c3)c3c(=O)n(C)c(NCc4ccc(F)cc4)nc32)c(Cl)cn1 [Compound I-129] | 2.62 µM |
| CO[C@@H]1CN(c2cc(NC(=O)Cn3cc(-c4cc(C(N)=O)c(O)c(F)c4F)c4c(=O)n(C)cnc43)c(Cl)c(F)n2)C[C@@H]1F [Compound I-442] | 0.386 µM |
| COC[C@H]1COCCN1c1cc(NC(=O)Cn2cc(-c3cc(Cl)c(O)c(C(N)=O)c3)c3c(=O)[nH]cnc32)c(Cl)cn1 [Compound I-164] | 0.601 µM |
| Cn1cnc2c(c(-c3cc(F)c(O)c(C(N)=O)c3)cn2CC(=O)Nc2cc(N3C4CCC3COC4)ncc2Cl)c1=O [Compound I-436] | 0.803 µM |
| CN1CC2(CCN(c3cc(NC(=O)Cn4cc(-c5cc(C(N)=O)c(O)c(F)c5F)c5c(=O)n(C)cnc54)c(Cl)cn3)C2)C1 [Compound I-483] | 10 µM |
| Cn1c(NCC2CC2)nc2c(c(-c3cc(Cl)c(O)c(C(N)=O)c3)cn2CC(=O)Nc2cc(N3CCOCC3)ncc2Cl)c1=O [Compound I-124] | 0.371 µM |
| C[C@H]1CN(C2COC2)CCN1c1cc(NC(=O)Cn2cc(-c3cc(Cl)c(O)c(C(N)=O)c3)c3c(=O)n(C)cnc32)c(Cl)c(F)n1 [Compound I-413] | 0.06 µM |
| Cc1nc2cc(Cl)c(NC(=O)Cn3cc(-c4cc(C(N)=O)c(O)c(F)c4F)c4c(=O)n(C)cnc43)cc2o1 [Compound I-226] | 5.12 µM |
| Cn1cnc2c(c(-c3cc(Cl)c(O)c(C(N)=O)c3)cn2CC(=O)Nc2cc(N3CCN4C(=O)CCC4C3)ncc2Cl)c1=O (stereo not drawn) [Compound I-236] | 0.739 µM |
| CO[C@H]1CN(c2cc(NC(=O)Cn3cc(-c4cc(Cl)c(O)c(C(N)=O)c4)c4c(=O)n(C)c(C(F)(F)F)nc43)c(Cl)c(F)n2)C[C@H]1F [Compound I-389] | 2.01 µM |
| Cn1cnc2c(c(-c3cc(F)c(O)c(C(N)=O)c3)cn2CC(=O)Nc2cc(N3C4CCC3CN(CC(F)(F)F)C4)ncc2Cl)c1=O [Compound I-467] | 1.23 µM |
| C[C@H]1COCCN1c1cc(NC(=O)Cn2cc(-c3cc(Cl)c(O)c(C(N)=O)c3)c3c(=O)n(C)c(-c4ccccc4)nc32)c(Cl)cn1 [Compound I-248] | 11.9 µM |
| Cn1cnc2c(c(-c3cc(C(N)=O)c(O)cc3F)cn2CC(=O)Nc2cc(N3C[C@H]4CCO[C@H]4C3)ncc2Cl)c1=O [Compound I-163] | 0.572 µM |
| CN(C)C1CN(c2cc(NC(=O)Cn3cc(-c4cc(C(N)=O)c(O)c(F)c4F)c4c(=O)n(C)cnc43)c(Cl)cn2)C1 [Compound I-326] | 2.35 µM |
| CO[C@@H]1CN(c2cc(NC(=O)Cn3cc(-c4cc(Cl)c(O)c(C(N)=O)c4)c4c(=O)n(C)c(C(F)(F)F)nc43)c(Cl)c(F)n2)C[C@@H]1F [Compound I-388] | 1.51 µM |

Test system: Karpas422 cells
Experiment: Tumor cell growth inhibition assay
Type: cell-based
Conditions: Homo sapiens, KARPAS-422, 144 h, read-out: Tumor Growth Inhibition in Karpas-422 (IC50, uM), Karpas422 cells, six days, ATPlite
Procedure: Tumor Cell Growth inhibition Assay
Karpas422 cells were seeded into a 96-well plate at 2,000 cells/well in 150 ul medium (Alpha-MEM containing 10% FBS, […] Normocin, and […] Gentamycin, Invitrogen). A HP D300 digital dispenser was used to dose cells with DMSO or test compounds across a 10-point range of concentrations (high dose of 5 uM), and cultures were grown in a humidified 5% CO2 incubator at 37° C. After six days, plates were removed from incubator and equilibrated to room temperature. An equal volume of ATPlite assay reagent was added to each well, and samples were processed according to manufacturer's instructions (Perkin Elmer). Luminescent signal was measured using an Envision plate reader equipped with a US-Luminescence detector.

| SMILES | IC50 |
| --- | --- |
| Cn1cnc2c(c(-c3cc(Cl)c(O)c(C(N)=O)c3)cn2CC(=O)Nc2cc(N3CCOCC34CCC4)ncc2Cl)c1=O [Compound I-245] | 0.182 µM |
| Cn1cnc2c(c(-c3cc(F)c(O)c(C(N)=O)c3)cn2CC(=O)Nc2cc(N3C[C@H]4CC[C@@H](C3)N4CC(F)(F)F)ncc2Cl)c1=O [Compound I-476] | 0.118 µM |
| CN(C)c1cc(NC(=O)Cn2cc(-c3cc(Cl)c(O)c(C(N)=O)c3)c3c(=O)n(C)c(NCc4ccc(F)cc4)nc32)c(Cl)cn1 [Compound I-129] | 0.866 µM |
| CO[C@@H]1CN(c2cc(NC(=O)Cn3cc(-c4cc(C(N)=O)c(O)c(F)c4F)c4c(=O)n(C)cnc43)c(Cl)c(F)n2)C[C@@H]1F [Compound I-442] | 0.266 µM |
| COC[C@H]1COCCN1c1cc(NC(=O)Cn2cc(-c3cc(Cl)c(O)c(C(N)=O)c3)c3c(=O)[nH]cnc32)c(Cl)cn1 [Compound I-164] | 0.251 µM |
| Cn1cnc2c(c(-c3cc(F)c(O)c(C(N)=O)c3)cn2CC(=O)Nc2cc(N3C4CCC3COC4)ncc2Cl)c1=O [Compound I-436] | 0.401 µM |
| CN1CC2(CCN(c3cc(NC(=O)Cn4cc(-c5cc(C(N)=O)c(O)c(F)c5F)c5c(=O)n(C)cnc54)c(Cl)cn3)C2)C1 [Compound I-483] | 10 µM |
| Cn1c(NCC2CC2)nc2c(c(-c3cc(Cl)c(O)c(C(N)=O)c3)cn2CC(=O)Nc2cc(N3CCOCC3)ncc2Cl)c1=O [Compound I-124] | 0.434 µM |
| C[C@H]1CN(C2COC2)CCN1c1cc(NC(=O)Cn2cc(-c3cc(Cl)c(O)c(C(N)=O)c3)c3c(=O)n(C)cnc32)c(Cl)c(F)n1 [Compound I-413] | 0.0822 µM |
| Cc1nc2cc(Cl)c(NC(=O)Cn3cc(-c4cc(C(N)=O)c(O)c(F)c4F)c4c(=O)n(C)cnc43)cc2o1 [Compound I-226] | 1.89 µM |
| Cn1cnc2c(c(-c3cc(Cl)c(O)c(C(N)=O)c3)cn2CC(=O)Nc2cc(N3CCN4C(=O)CCC4C3)ncc2Cl)c1=O (stereo not drawn) [Compound I-236] | 0.385 µM |
| CO[C@H]1CN(c2cc(NC(=O)Cn3cc(-c4cc(Cl)c(O)c(C(N)=O)c4)c4c(=O)n(C)c(C(F)(F)F)nc43)c(Cl)c(F)n2)C[C@H]1F [Compound I-389] | 1.46 µM |
| Cn1cnc2c(c(-c3cc(F)c(O)c(C(N)=O)c3)cn2CC(=O)Nc2cc(N3C4CCC3CN(CC(F)(F)F)C4)ncc2Cl)c1=O [Compound I-467] | 0.496 µM |
| C[C@H]1COCCN1c1cc(NC(=O)Cn2cc(-c3cc(Cl)c(O)c(C(N)=O)c3)c3c(=O)n(C)c(-c4ccccc4)nc32)c(Cl)cn1 [Compound I-248] | 0.29 µM |
| Cn1cnc2c(c(-c3cc(C(N)=O)c(O)cc3F)cn2CC(=O)Nc2cc(N3C[C@H]4CCO[C@H]4C3)ncc2Cl)c1=O [Compound I-163] | 0.93 µM |
| CN(C)C1CN(c2cc(NC(=O)Cn3cc(-c4cc(C(N)=O)c(O)c(F)c4F)c4c(=O)n(C)cnc43)c(Cl)cn2)C1 [Compound I-326] | 2 µM |
| CO[C@@H]1CN(c2cc(NC(=O)Cn3cc(-c4cc(Cl)c(O)c(C(N)=O)c4)c4c(=O)n(C)c(C(F)(F)F)nc43)c(Cl)c(F)n2)C[C@@H]1F [Compound I-388] | 0.394 µM |
